The source of these data is US20070004660A1, “Synergistic Modulation of Flt3 Kinase Using Alkylquinolines and Alkylquinazolines” (priority 2005, published 2007).

One may read the IC50 as the point on the concentration scale where inhibition reaches its midpoint. Read a low IC50 as greater potency.

Experiment [1] has as its target T1, isolated kinase domain of the human FLT3 receptor (a.a. 571-993) (Homo sapiens, UniProt P36888).
T1 construct: human FLT3 receptor (a.a. 571-993)
T1 sequence (P36888 571-993): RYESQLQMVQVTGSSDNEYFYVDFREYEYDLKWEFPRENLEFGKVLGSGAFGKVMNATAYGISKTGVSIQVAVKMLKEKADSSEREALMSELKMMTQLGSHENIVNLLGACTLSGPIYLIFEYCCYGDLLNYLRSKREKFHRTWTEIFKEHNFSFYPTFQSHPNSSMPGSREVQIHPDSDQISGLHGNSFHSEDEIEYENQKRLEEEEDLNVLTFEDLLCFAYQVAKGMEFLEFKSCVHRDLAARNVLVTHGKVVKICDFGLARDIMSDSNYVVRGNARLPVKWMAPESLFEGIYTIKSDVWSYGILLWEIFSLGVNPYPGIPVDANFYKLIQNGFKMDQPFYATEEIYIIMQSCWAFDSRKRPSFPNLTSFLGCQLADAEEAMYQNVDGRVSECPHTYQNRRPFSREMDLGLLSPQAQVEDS
As to the kind of experiment: FLT3 fluorescence polarization kinase assay. The format is biochemical. As to conditions: 150 uM ATP; uncertainty ±10%. As to the method: The FLT3 FP assay utilizes the fluorescein-labeled phosphopeptide and the anti-phosphotyrosine antibody included in the Panvera Phospho-Tyrosine Kinase Kit (Green) supplied by Invitrogen. When FLT3 phosphorylates polyGlu4Tyr, the fluorescein-labeled phosphopeptide is displaced from the anti-phosphotyrosine antibody by the phosphorylated poly Glu4Tyr, thus decreasing the FP value. The FLT3 kinase reaction is incubated at room temperature for 30 minutes under the following conditions: 10 nM FLT3 571-993, 20 ug/mL poly Glu4Tyr, 150 uM ATP, 5 mM MgCl2, 1% compound in DMSO. The kinase reaction is stopped with the addition of EDTA. The fluorescein-labeled phosphopeptide and the anti-phosphotyrosine antibody are added and incubated for 30 minutes at room temperature.
All data points are an average of triplicate samples. Inhibition and IC50 data analysis was done with GraphPad Prism using a non-linear regression fit with a multiparamater, sigmoidal dose-response (variable slope) equation.
(In fluorescence polarisation assays a small probe gives low polarisation when free and higher when bound to something large.)

A further experiment concerns MV4-11 cells. The experiment in a line: Inhibition of MV4-11 cell proliferation (CellTiterGlo, 72 h). As to conditions: Homo sapiens; 72 h growth inhibition; uncertainty ±20%. The format is cell-based. As to the method: MV4-11 cells cannot grow and survive without active FLT3ITD.
To measure proliferation inhibition by test compounds, the luciferase based CellTiterGlo reagent (Promega), which quantifies total cell number based on total cellular ATP concentration, was used. Cells are plated at 10,000 cells per well in 100 ul of in RPMI media containing penn/strep, 10% FBS and 1 ng/ml GM-CSF or 1 ng/ml IL-3 for MV4-11 and Baf3 cells respectively.
Compound dilutions or 0.1% DMSO (vehicle control) are added to cells and the cells are allowed to grow for 72 hours at standard cell growth conditions (37° C., 5% CO2). For activity measurements in MV4-11 cells grown in 50% plasma, cells were plated at 10,000 cells per well in a 1:1 mixture of growth media and human plasma (final volume of 100 μL). To measure total cell growth an equal volume of CellTiterGlo reagent was added to each well, according to the manufacturer's instructions, and luminescence was quantified. Total cell growth was quantified as the difference in luminescent counts (relative light units, RLU) of cell number at Day 0 compared to total cell number at Day 3 (72 hours of growth and/or compound treatment). One hundred percent inhibition of growth is defined as an RLU equivalent to the Day 0 reading. Zero percent inhibition was defined as the RLU signal for the DMSO vehicle control at Day 3 of growth. All data points are an average of triplicate samples. […] Inhibition and IC50 data analysis was done with GraphPad Prism using a non-linear regression fit with a multiparamater, sigmoidal dose-response (variable slope) equation.
MV4-11 cells express the FLT3 internal tandem duplication mutation, and thus are entirely dependent upon FLT3 activity for growth. […] In contrast, the Baf3 cell proliferation is driven by the cytokine IL-3 and thus are used as a non-specific toxicity control for test compounds.

For the molecule `COc1cc2ncnc(C3CCN(C(=O)Nc4ccc(N5CCN(C)CC5)cc4)CC3)c2cc1OC` [Example 20, 4-(6,7-Dimethoxy-quinazolin-4-yl)-piperidine-1-carboxylic acid [4-(4-methyl-piperazin-1-yl-phenyl)]-amide], the IC50 was 6600 nM in experiment [1] and 1100 nM in the experiment with MV4-11 cells.

`COc1cc2ncnc(C3CCN(C(=O)Nc4ccc(C(F)(F)F)cc4)CC3)c2cc1OC` [Example 46, 4-(6,7-Dimethoxy-quinazolin-4-yl)-piperidine-1-carboxylic acid (4-trifluoromethyl-phenyl)-amide]: the IC50 in experiment [1] is 990 nM; in the experiment with MV4-11 cells, 2000 nM.

On to `COc1ccc2ncnc(C3CCN(C(=O)Nc4ccc(OC(C)C)cc4)CC3)c2c1` [Compound 203, 4-(6-Methoxy-quinazolin-4-yl)-piperidine-1-carboxylic acid (4-isopropoxy-phenyl)-amide], for which the IC50 is 297 nM in experiment [1] and 149 nM with MV4-11 cells.

Take `COCC(=O)N1CCN(c2ccc3c(C4CCN(C(=O)Nc5ccc(N6CCCC6)cc5)CC4)ncnc3c2)CC1` [Compound 200]: the IC50 came to 21 nM in experiment [1] and 6 nM in the experiment on MV4-11 cells.

For the molecule `CN(C)C(=O)N1CCN(c2ccc3c(C4CCN(C(=O)Nc5ccc(N6CCCC6)cc5)CC4)ncnc3c2)CC1` [Example 168, 4-{4-[1-(4-Pyrrolidin-1-yl-phenylcarbamoyl)-piperidin-4-yl]-quinazolin-7-yl}-piperazine-1-carboxylic acid dimethylamide], the values for the IC50 (in experiment [1]; in the experiment with MV4-11 cells) were 3 nM and 17 nM, respectively.

In the case of `O=C(NCCCOc1ccc2c(C3CCN(C(=O)Nc4ccc(N5CCOCC5)nc4)CC3)ncnc2c1)N1CCOCC1` [Example 113, Morpholine-4-carboxylic acid (3-{4-[1-(6-morpholin-4-yl-pyridin-3-ylcarbamoyl)-piperidin-4-yl]-quinazolin-7-yloxy}-propyl)-amide], the IC50 was 132 nM in experiment [1] and 360 nM in the experiment with MV4-11 cells.

With `COc1ccc(NC(=O)N2CCC(c3ncnc4cc(OC)c(OC)cc34)CC2)cc1` [Example 41, 4-(6,7-Dimethoxy-quinazolin-4-yl)-piperidine-1-carboxylic acid (4-methoxy-phenyl)-amide], the IC50 in experiment [1] was found to be 730 nM; with MV4-11 cells, 3300 nM.

Take `COc1cc2ncnc(C3CCN(C(=O)Nc4ccc5c(c4)CCO5)CC3)c2cc1OC` [Example 27, 4-(6,7-Dimethoxy-quinazolin-4-yl)-piperidine-1-carboxylic acid (2,3-dihydro-benzofuran-5-yl)-amide]: the results for the IC50 (in experiment [1]; in the experiment with MV4-11 cells) were 2000 nM and 4100 nM, respectively.

`CS(=O)(=O)N1CC[C@@H](Oc2ccc3c(C4CCN(C(=O)Nc5ccc(N6CCCC6)cc5)CC4)ncnc3c2)C1` [Compound 177, (R)-4-[7-(1-Methanesulfonyl-pyrrolidin-3-yloxy)-quinazolin-4-yl]-piperidine-1-carboxylic acid (4-pyrrolidin-1-yl-phenyl)-amide]: the IC50 came out at 1 nM in experiment [1] and 265 nM in the experiment with MV4-11 cells.

As to `O=C(Nc1ccc(N2CCCC2)nc1)N1CCC(c2ncnc3cc(OCCCn4cnnc4)ccc23)CC1` [Example 114, 4-[7-(3-[1,2,4]Triazol-4-yl-propoxy)-quinazolin-4-yl]-piperidine-1-carboxylic acid (6-pyrrolidin-1-yl-pyridin-3-yl)-amide], the IC50 in experiment [1] amounted to 9 nM; with MV4-11 cells it was 178 nM.

For `CN1CCN(CCCOc2ccc3c(C4CCN(C(=S)Nc5ccc(N6CCOCC6)nc5)CC4)ncnc3c2)CC1` [Example 106, 4-{7-[3-(4-Methyl-piperazin-1-yl)-propoxy]-quinazolin-4-yl}-piperidine-1-carbothioic acid (6-morpholin-4-yl-pyridin-3-yl)-amide], the IC50 in experiment [1] came to 2200 nM; in the experiment on MV4-11 cells, 1000 nM.

As to `COc1cc2ncnc(C3CCN(C(=O)Nc4ccc(N5CCCCCC5)cc4)CC3)c2cc1OC` [Example 70, 4-(6,7-Dimethoxy-quinazolin-4-yl)-piperidine-1-carboxylic acid (4-azepan-1-yl-phenyl)-amide], the IC50 in experiment [1] came to 27 nM; in the experiment with MV4-11 cells, 8 nM.

As to `O=C(Nc1ccc(N2CCOCC2)cc1)N1CCC(c2ncnc3cc(N4CC[C@@H](O)C4)ccc23)CC1` [Example 126, (R)-4-[7-(3-Hydroxy-pyrrolidin-1-yl)-quinazolin-4-yl]-piperidine-1-carboxylic acid (4-morpholin-4-yl-phenyl)-amide], the IC50 is 25 nM in experiment [1] and 96 nM in the experiment on MV4-11 cells.

For the molecule `COc1cc2ncnc(C3CCN(C(=O)Nc4ccc(N5CCCCC5)c(Cl)c4)CC3)c2cc1OC` [Example 71, 4-(6,7-Dimethoxy-quinazolin-4-yl)-piperidine-1-carboxylic acid (3-chloro-4-piperidin-1-yl-phenyl)-amide], the IC50 in experiment [1] amounted to 139 nM; in the experiment with MV4-11 cells it was 110 nM.

As for `CN(C)c1c(NCCCOc2ccc3c(C4CCN(C(=O)Nc5ccc(N6CCCC6)nc5)CC4)ncnc3c2)c(=O)c1=O` [Example 111, 4-{7-[3-(2-Dimethylamino-3,4-dioxo-cyclobut-1-enylamino)-propoxy]-quinazolin-4-yl}-piperidine-1-carboxylic acid (6-pyrrolidin-1-yl-pyridin-3-yl)-amide], the IC50 was found to be 19 nM in experiment [1] and 625 nM in the experiment with MV4-11 cells.

Consider `CC(C)c1ccc(NC(=O)N2CCC(c3ccnc4ccccc34)CC2)cc1` [Example 5, 4-Quinolin-4-yl-piperidine-1-carboxylic acid (4-isopropyl-phenyl)-amide], for which the IC50 in experiment [1] was 94 nM; in the experiment on MV4-11 cells, 290 nM.

With `COc1cc2c(C3CCN(C(=O)Nc4ccc(N5CCCC5)cc4)CC3)ncnc2cc1OCCCN1CCN(C)CC1` [Compound 208, 4-{6-Methoxy-7-[3-(4-methyl-piperazin-1-yl)-propoxy]-quinazolin-4-yl}-piperidine-1-carboxylic acid (4-pyrrolidin-1-yl-phenyl)-amide], the figures for the half-inhibitory concentration (IC50) (in experiment [1]; in the experiment on MV4-11 cells) were 2 nM and 3 nM, respectively.

As for `CN1CCN(c2ccc3ncnc(C4CCN(C(=O)Nc5ccc(N6CCOCC6)cc5)CC4)c3c2)CC1` [Compound 198, 4-[6-(4-Methyl-piperazin-1-yl)-quinazolin-4-yl]-piperidine-1-carboxylic acid (4-morpholin-4-yl-phenyl)-amide], the IC50 in experiment [1] was determined as 10200 nM; in the experiment on MV4-11 cells, 227 nM.

Regarding `COc1cc2ncnc(C3CCN(C(=O)NC4CCCCC4)CC3)c2cc1OC` [Example 42, 4-(6,7-Dimethoxy-quinazolin-4-yl)-piperidine-1-carboxylic acid cyclohexylamide], the IC50 (in experiment [1]; in the experiment on MV4-11 cells) was greater than 10000 nM throughout.

With `COc1cc2ncnc(C3CCN(C(=O)Nc4ccc(C)cc4)CC3)c2cc1OC` [Example 48, 4-(6,7-Dimethoxy-quinazolin-4-yl)-piperidine-1-carboxylic acid p-tolylamide], the IC50 in experiment [1] amounted to 1600 nM; in the experiment with MV4-11 cells, 1800 nM.

Turning to `O=C(Nc1ccc(N2CCOCC2)nc1)N1CCC(c2ncnc3cc(OCCCn4cnnc4)ccc23)CC1` [Example 110, 4-[7-(3-[1,2,4]Triazol-4-yl-propoxy)-quinazolin-4-yl]-piperidine-1-carboxylic acid (6-morpholin-4-yl-pyridin-3-yl)-amide], the IC50 in experiment [1] is 28 nM; in the experiment with MV4-11 cells, 893 nM.

For `CC(C)Oc1ccc(NC(=O)N2CCC(c3ncnc4cc(OCCCc5nnn[nH]5)ccc34)CC2)cc1` [Compound 204, 4-{7-[3-(1H-Tetrazol-5-yl)-propoxy]-quinazolin-4-yl}-piperidine-1-carboxylic acid (4-isopropoxy-phenyl)-amide], the IC50 was 306 nM in experiment [1] and greater than 1000 nM in the experiment with MV4-11 cells.
